Assay results from the NIST ThermoML archive (doi:10.1021/je060353z).

Assay: xn = mol fraction of the nth substance listed
Details: 101 kPa, Liquid

Clc1ccccc1 [chlorobenzene] + CCCCCCCCO
Details | mass density [kg/m3] | speed of sound [m/s] | viscosity [mPa·s]
298.15 K, x1 = 0.1423 | 848.715 | 1334.1 | 5.448
298.15 K, x1 = 0.2807 | 877.644 | 1319.1 | 3.87
298.15 K, x1 = 0.4121 | 908.104 | 1303.7 | 2.788
298.15 K, x1 = 0.5237 | 936.698 | 1291.1 | 2.116
298.15 K, x1 = 0.6158 | 962.489 | 1281.2 | 1.692
298.15 K, x1 = 0.7073 | 990.466 | 1272.7 | 1.363
298.15 K, x1 = 0.7885 | 1017.46 | 1267 | 1.132
298.15 K, x1 = 0.8662 | 1045.68 | 1264 | 0.956
298.15 K, x1 = 0.9331 | 1072.02 | 1264 | 0.841
298.15 K, x1 = 1 | 1100.97 | 1268 | 0.757
303.15 K, x1 = 0.1423 | 844.912 | 1317.5 | 4.64
303.15 K, x1 = 0.2807 | 873.625 | 1303.4 | 3.352
303.15 K, x1 = 0.4121 | 903.886 | 1289.6 | 2.455
303.15 K, x1 = 0.5237 | 932.283 | 1277.8 | 1.89
303.15 K, x1 = 0.6158 | 957.91 | 1268.6 | 1.528
303.15 K, x1 = 0.7073 | 985.68 | 1260 | 1.243
303.15 K, x1 = 0.7885 | 1012.47 | 1253.4 | 1.04
303.15 K, x1 = 0.8662 | 1040.47 | 1248.7 | 0.885
303.15 K, x1 = 0.9331 | 1066.6 | 1247.5 | 0.782
303.15 K, x1 = 1 | 1095.1 | 1249.4 | 0.714
308.15 K, x1 = 0.1423 | 841.161 | 1302.6 | 3.981
308.15 K, x1 = 0.2807 | 869.616 | 1289.5 | 2.919
308.15 K, x1 = 0.4121 | 899.625 | 1276 | 2.174
308.15 K, x1 = 0.5237 | 927.793 | 1263.8 | 1.678
308.15 K, x1 = 0.6158 | 953.186 | 1254.6 | 1.366
308.15 K, x1 = 0.7073 | 980.694 | 1245.7 | 1.119
308.15 K, x1 = 0.7885 | 1007.21 | 1238.7 | 0.956
308.15 K, x1 = 0.8662 | 1034.92 | 1233.4 | 0.833
308.15 K, x1 = 0.9331 | 1060.82 | 1230.9 | 0.752
308.15 K, x1 = 1 | 1089.08 | 1230.9 | 0.677
313.15 K, x1 = 0.1423 | 836.375 | 1285.8 | 3.436
313.15 K, x1 = 0.2807 | 864.727 | 1273.2 | 2.562
313.15 K, x1 = 0.4121 | 894.659 | 1260.3 | 1.934
313.15 K, x1 = 0.5237 | 922.757 | 1248.9 | 1.528
313.15 K, x1 = 0.6158 | 948.078 | 1239.6 | 1.267
313.15 K, x1 = 0.7073 | 975.5 | 1230.7 | 1.037
313.15 K, x1 = 0.7885 | 1001.95 | 1223.5 | 0.891
313.15 K, x1 = 0.8662 | 1029.57 | 1217.8 | 0.76
313.15 K, x1 = 0.9331 | 1055.42 | 1214.3 | 0.681
313.15 K, x1 = 1 | 1083.66 | 1212.6 | 0.617

Clc1ccccc1 [chlorobenzene] + CCCCCCO
Details | mass density [kg/m3] | speed of sound [m/s] | viscosity [mPa·s]
298.15 K, x1 = 0.1144 | 842.629 | 1297.7 | 3.576
298.15 K, x1 = 0.2338 | 872.274 | 1289.8 | 2.746
298.15 K, x1 = 0.3573 | 904.193 | 1281.6 | 2.107
298.15 K, x1 = 0.4628 | 932.67 | 1274.8 | 1.699
298.15 K, x1 = 0.5568 | 959.077 | 1269.2 | 1.417
298.15 K, x1 = 0.6542 | 987.534 | 1264.3 | 1.184
298.15 K, x1 = 0.7457 | 1015.51 | 1260.9 | 1.008
298.15 K, x1 = 0.8353 | 1044.18 | 1259.3 | 0.873
298.15 K, x1 = 0.9171 | 1071.62 | 1260.9 | 0.788
298.15 K, x1 = 1 | 1100.97 | 1268 | 0.757
303.15 K, x1 = 0.1144 | 839.289 | 1280.6 | 3.096
303.15 K, x1 = 0.2338 | 868.705 | 1272.5 | 2.414
303.15 K, x1 = 0.3573 | 900.355 | 1264 | 1.87
303.15 K, x1 = 0.4628 | 928.591 | 1257.1 | 1.515
303.15 K, x1 = 0.5568 | 954.767 | 1251.6 | 1.274
303.15 K, x1 = 0.6542 | 982.986 | 1246.6 | 1.079
303.15 K, x1 = 0.7457 | 1010.71 | 1243.1 | 0.935
303.15 K, x1 = 0.8353 | 1039.12 | 1241.5 | 0.824
303.15 K, x1 = 0.9171 | 1066.27 | 1243.2 | 0.752
303.15 K, x1 = 1 | 1095.1 | 1249.4 | 0.714
308.15 K, x1 = 0.1144 | 835.421 | 1263.6 | 2.695
308.15 K, x1 = 0.2338 | 864.604 | 1255.4 | 2.123
308.15 K, x1 = 0.3573 | 895.988 | 1246.7 | 1.665
308.15 K, x1 = 0.4628 | 923.985 | 1239.7 | 1.369
308.15 K, x1 = 0.5568 | 949.942 | 1233.9 | 1.165
308.15 K, x1 = 0.6542 | 977.948 | 1228.9 | 0.997
308.15 K, x1 = 0.7457 | 1005.42 | 1225.4 | 0.87
308.15 K, x1 = 0.8353 | 1033.55 | 1224.3 | 0.772
308.15 K, x1 = 0.9171 | 1060.41 | 1225.8 | 0.711
308.15 K, x1 = 1 | 1089.08 | 1230.9 | 0.677
313.15 K, x1 = 0.1144 | 831.574 | 1246.5 | 2.35
313.15 K, x1 = 0.2338 | 860.561 | 1238.5 | 1.865
313.15 K, x1 = 0.3573 | 891.747 | 1229.8 | 1.478
313.15 K, x1 = 0.4628 | 919.571 | 1222.9 | 1.223
313.15 K, x1 = 0.5568 | 945.388 | 1216.7 | 1.044
313.15 K, x1 = 0.6542 | 973.227 | 1211.6 | 0.896
313.15 K, x1 = 0.7457 | 1000.53 | 1207.9 | 0.78
313.15 K, x1 = 0.8353 | 1028.46 | 1206.6 | 0.692
313.15 K, x1 = 0.9171 | 1055.09 | 1208.2 | 0.637
313.15 K, x1 = 1 | 1083.66 | 1212.6 | 0.617
